Tests used:
Format in all cases: cell-based
[1] = test system: HTT CJ mRNA; assay: Gene panel canonical junction qPCR splicing assay, HTT; conditions: Table 4, read-out: HTT IC50 (decrease in CJ mRNA levels)
In short: (§1)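 A673 or K562 cells treated with compound; canonical-junction mRNA measured by RT-qPCR with junction-spanning primer/probe sets, normalized to GAPDH, GUSB or PPIA and DMSO (2^−ΔΔCt). IC50 for CJ decrease from 4-parameter logistic fit of percentage response.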

[2] = test system: HTT mRNA; assay: Splicing assay (RT-qPCR) of HTT mRNA alternative junction (AJ) and canonical junction (CJ); conditions: A673 or K562 cells, 24 hours; for IC50: decrease in CJ mRNA, read-out: HTT CJ IC50; for AC50: increase in AJ mRNA, read-out: HTT AJ AC50
In short: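 A673 (adherent, 24 h pre-plating) or K562 cells treated 24 h at 37 °C with an 11-point 3-fold dilution series, top 10 uM, DMSO ≤0.25%. Lysates analysed by one-step RT-qPCR for HTT canonical (CJ) and alternative-exon (AJ) junctions, normalised to PPIA (A673) or GAPDH/GUSB (K562).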

[3] = test system: SMN2 CJ mRNA; assay: Gene panel canonical junction qPCR splicing assay, SMN2; conditions: Table 4, read-out: SMN2 IC50 (decrease in CJ mRNA levels)
In short: as §1

[4] = test system: Target C CJ mRNA; assay: Gene panel canonical junction qPCR splicing assay, Target C; conditions: Table 4, read-out: Target C IC50 (decrease in CJ mRNA levels)
In short: as §1

Q: Cc1nc2cc(O)c(-c3ccc4nc(N5CCC(N)C5)ccc4n3)cc2o1 (stereo not drawn) [Compound 234, 6-[6-(3-aminopyrrolidin-1-yl)-1,5-naphthyridin-2-yl]-2-methyl-1,3-benzoxazol-5-ol] was tested. Which IC50 [1] did it give?
A: The IC50 was 100 to 1000 nM.

Q: What about the IC50 [2] of the same compound?
A: The IC50 was 100 to 1000 nM.

Q: And the AC50 [2]?
A: Its AC50 is < 100 nM.

Q: What about the IC50 [3] of the same compound?
A: Its IC50 is < 100 nM.

Q: And the IC50 [4]?
A: Its IC50 is 100 to 1000 nM.

Q: Cc1nc2c(C)c(O)c(-c3ccc4nc(N5CCC(NC6CCC6)C5)ccc4n3)cc2o1 (stereo not drawn) [Compound 235, 6-{6-[3-(cyclobutylamino)pyrrolidin-1-yl]-1,5-naphthyridin-2-yl}-2,4-dimethyl-1,3-benzoxazol-5-ol] was tested. Which IC50 [1] did it give?
A: The IC50 was < 100 nM.

Q: And the IC50 [2]?
A: Its IC50 is < 100 nM.

Q: And the AC50 [2]?
A: The AC50 was < 100 nM.

Q: And the IC50 [3]?
A: Its IC50 is < 100 nM.

Q: And the IC50 [4]?
A: The IC50 was < 100 nM.

Q: For Cn1cc2cc(-c3ccc4nc(N5CCC(N)C5)ccc4n3)c(O)c(F)c2n1 (stereo not drawn) [Compound 238, 5-[6-(3-aminopyrrolidin-1-yl)-1,5-naphthyridin-2-yl]-7-fluoro-2-methylindazol-6-ol], which IC50 [1] is on record?
A: Its IC50 is < 100 nM.

Q: What about the IC50 [2] of the same compound?
A: The IC50 was < 100 nM.

Q: And the AC50 [2]?
A: The AC50 was < 100 nM.

Q: What about the IC50 [3] of the same compound?
A: The IC50 was < 100 nM.

Q: And the IC50 [4]?
A: Its IC50 is < 100 nM.

Q: What does the source list for Cn1cc2cc(-c3ccc4cc(C5CCNCC5)ccc4n3)c(O)c(F)c2n1 [Compound 241, 7-fluoro-2-methyl-5-[6-(piperidin-4-yl)quinolin-2-yl]indazol-6-ol]?
A: IC50 [1]: < 100 nM; IC50 [2]: < 100 nM; AC50 [2]: < 100 nM; IC50 [3]: < 100 nM; IC50 [4]: < 100 nM

Q: Which results are given for Cn1cc2cc(-c3ccc4nc(N5CC[C@@H](N[C@H]6C[C@H](F)C6)C5)ccc4n3)c(O)cc2n1 [Compound 246]?
A: IC50 [1]: < 100 nM; IC50 [2]: < 100 nM; AC50 [2]: < 100 nM; IC50 [3]: < 100 nM; IC50 [4]: < 100 nM

Q: Which IC50 [1] does the source give for Cn1cc2cc(-c3ccc4nc(N5CC[C@H](N[C@H]6C[C@H](F)C6)C5)ccc4n3)c(O)cc2n1 [Compound 247] here?
A: Its IC50 is < 100 nM.

Q: What about the IC50 [2] of the same compound?
A: Its IC50 is < 100 nM.

Q: And the AC50 [2]?
A: Its AC50 is 100 to 1000 nM.

Q: What about the IC50 [3] of the same compound?
A: The IC50 was < 100 nM.

Q: And the IC50 [4]?
A: Its IC50 is 100 to 1000 nM.

Reference: patent publication US20240002375A1, “2-(INDAZOL-5-YL)-6-(PIPERIDIN-4-YL)-1,7-NAPHTHYRIDINE DERIVATIVES AND RELATED COMPOUNDS AS MODULATORS FOR SPLICING NUCLEIC ACIDS AND FOR THE TRE” (REMIX THERAPEUTICS INC., priority 2020, published 2024)
